Where a name gives a salt, the structure may show the parent alone.

rat TRPV1, sequence (O35433 whole entry): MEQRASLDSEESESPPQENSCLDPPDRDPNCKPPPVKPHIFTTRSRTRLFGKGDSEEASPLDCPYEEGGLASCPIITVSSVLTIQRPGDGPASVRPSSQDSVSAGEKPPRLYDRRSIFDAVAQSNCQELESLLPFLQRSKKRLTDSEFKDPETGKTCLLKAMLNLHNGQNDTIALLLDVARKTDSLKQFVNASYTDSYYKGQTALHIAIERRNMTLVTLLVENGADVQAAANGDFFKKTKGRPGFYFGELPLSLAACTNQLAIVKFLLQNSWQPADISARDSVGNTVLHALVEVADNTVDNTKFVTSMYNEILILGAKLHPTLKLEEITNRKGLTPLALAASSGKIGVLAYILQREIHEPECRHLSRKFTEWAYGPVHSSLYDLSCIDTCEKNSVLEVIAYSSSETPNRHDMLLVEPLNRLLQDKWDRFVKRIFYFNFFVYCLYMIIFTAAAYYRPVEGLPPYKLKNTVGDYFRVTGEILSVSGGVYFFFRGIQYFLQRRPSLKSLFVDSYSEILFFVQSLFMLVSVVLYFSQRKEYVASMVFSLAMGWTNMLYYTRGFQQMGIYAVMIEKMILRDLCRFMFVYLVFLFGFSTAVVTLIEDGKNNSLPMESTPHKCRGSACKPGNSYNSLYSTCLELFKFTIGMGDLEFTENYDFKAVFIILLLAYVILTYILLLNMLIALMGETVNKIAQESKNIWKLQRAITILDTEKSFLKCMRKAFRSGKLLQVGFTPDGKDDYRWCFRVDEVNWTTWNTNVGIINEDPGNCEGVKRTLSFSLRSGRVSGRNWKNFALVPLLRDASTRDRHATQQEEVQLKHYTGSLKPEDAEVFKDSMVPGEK

The first assay addresses rat TRPV1 (Rattus norvegicus (Rat), UniProt O35433). Particulars: read-out: Rat IC50.
Protocol: Biological Testing: Functional Assay: Block of Capsaicin-Induced Ca^2+ Influx A. Human Assay
Cells were passaged frequently, every 3-5 days, to avoid overgrowth, depletion of essential medium components, or acidic medium exposure. Cells were passaged using a brief wash in 0.05% trypsin with 1 mM EDTA, followed by dissociation in divalent-free phosphate-buffered saline (Hyclone #SH30028.02). […] The assay buffer was composed of 130 mM NaCl, 2 mM KCl, 2 mM MgCl2, 10 mM HEPES, 5 mM glucose, and either 2 mM or 20 μM CaCl2. On the day of the experiment, the culture medium was replaced with 2 mM calcium assay buffer using an automated plate washer (ELx405; Biotek, VT). […] After loading the cells, the dye solution was replaced with 50 μL/well of 20 μM calcium assay buffer using the ELx405 plate washer. Test compounds (50 μL/well) were added to the plate and incubated for 30 min. […] The IC50 values were determined. […] The contents of the wells were mixed 3 times (40 μL mix volume) immediately after the additions were made. Concentration dependence of block was determined by exposing each well of cells in duplicate rows of a 96 well plate to a serial dilution of test compound. The concentration series usually started at 10 μM with a three-fold serial decrement in concentration. The magnitude of the capsaicin response was determined by measuring the change in fluo3 fluorescence before and 100 seconds after the addition of the agonist. Data were analyzed using a non-linear regression program (Origin; OriginLab, MA). IC50 values shown are the average (mean) of the results obtained.
The assay was performed as described above, using HEK293 cells transfected with rat TRPV1 (rTRPV1/HEK293). […] IC50 values shown are the average (mean) of the results obtained.
Regarding `Cc1cncnc1N1CCc2ncnc(Nc3ccc(C(C)(C)C)cc3)c2CC1` [Example 38, (4-tert-Butyl-phenyl)-[7-(5-methyl-pyrimidin-4-yl)-6,7,8,9-tetrahydro-5H-pyrimido[4,5-d]azepin-4-yl]-amine], the half-maximal inhibitory concentration (IC50) (as a rule, the concentration that gives 50% inhibition) stood at 1400 nM.

For `FC(F)(F)c1ccc(Nc2nc(N3CCCCC3)nc3c2CCN(c2ncccc2C(F)(F)F)CC3)cc1` [Example 39, [2-Piperidin-1-yl-7-(3-trifluoromethyl-pyridin-2-yl)-6,7,8,9-tetrahydro-5H-pyrimido[4,5-d]azepin-4-yl]-(4-trifluoromethyl-phenyl)-amine], the IC50 came out at 18 nM.

Regarding `FC(F)(F)c1ccc(Nc2nc(N3CCOCC3)nc3c2CCN(c2ncccc2C(F)(F)F)CC3)cc1` [Example 40, [2-Morpholin-4-yl-7-(3-trifluoromethyl-pyridin-2-yl)-6,7,8,9-tetrahydro-5H-pyrimido[4,5-d]azepin-4-yl]-(4-trifluoromethyl-phenyl)-amine], the IC50 was […].

As for `FC(F)(F)c1ccc(Nc2nc(N3CCOCC3)nc3c2CCN(c2ncccc2C(F)(F)F)CC3)nc1` [Example 41, [2-Morpholin-4-yl-7-(3-trifluoromethyl-pyridin-2-yl)-6,7,8,9-tetrahydro-5H-pyrimido[4,5-d]azepin-4-yl]-(5-trifluoromethyl-pyridin-2-yl)-amine], the IC50 came to 49 nM.

As for `CC(C)(C)c1ccc(Nc2nc(N3CCCCC3)nc3c2CCN(c2ncccc2C(F)(F)F)CC3)cc1` [Example 42, (4-tert-Butyl-phenyl)-[2-piperidin-1-yl-7-(3-trifluoromethyl-pyridin-2-yl)-6,7,8,9-tetrahydro-5H-pyrimido[4,5-d]azepin-4-yl]-amine], the IC50 was determined as 49 nM.

On to `CN(C)c1nc2c(c(Nc3ccc(C(F)(F)F)cn3)n1)CCN(c1ncccc1C(F)(F)F)CC2` [Example 44, N^2,N^2-Dimethyl-N^4-(5-trifluoromethyl-pyridin-2-yl)-7-(3-trifluoro-methyl-pyridin-2-yl)-6,7,8,9-tetrahydro-5H-pyrimido[4,5-d]azepine-2,4-diamine], for which the IC50 was 250 nM.

For the compound `CN(C)c1nc2c(c(Nc3ccc(C(F)(F)F)c(Cl)c3)n1)CCN(c1ncccc1C(F)(F)F)CC2` [Example 45, N^4-(3-Chloro-4-trifluoromethyl-phenyl)-N^2,N^2-dimethyl-7-(3-trifluoro-methyl-pyridin-2-yl)-6,7,8,9-tetrahydro-5H-pyrimido[4,5-d]azepine-2,4-diamine], the IC50 was determined as 90 nM.

On to `CC(C)(C)c1ccc(Nc2nc(N3CCOCC3)nc3c2CCN(c2ncccc2C(F)(F)F)CC3)cc1` [Example 47, (4-tert-Butyl-phenyl)-[2-morpholin-4-yl-7-(3-trifluoromethyl-pyridin-2-yl)-6,7,8,9-tetrahydro-5H-pyrimido[4,5-d]azepin-4-yl]-amine], for which the IC50 came to 23 nM.

In the case of `CN(C)c1nc2c(c(Nc3ccc(C(C)(C)C)cc3)n1)CCN(c1ncccc1C(F)(F)F)CC2` [Example 48, N^4-(4-tert-Butyl-phenyl)-N^2,N^2-dimethyl-7-(3-trifluoromethyl-pyridin-2-yl)-6,7,8,9-tetrahydro-5H-pyrimido[4,5-d]azepine-2,4-diamine], the IC50 came to 74 nM.

Consider `CN(C)c1nc2c(c(Nc3ccc(C(F)(F)F)cc3)n1)CCN(c1ncccc1C(F)(F)F)CC2` [Example 49, N^2,N^2-Dimethyl-N^4-(4-trifluoromethyl-phenyl)-7-(3-trifluoromethyl-pyridin-2-yl)-6,7,8,9-tetrahydro-5H-pyrimido[4,5-d]azepine-2,4-diamine], for which the half-maximal inhibitory concentration (IC50) is 240 nM.

`CN(C)c1nc2c(c(Nc3ccc(Cl)cc3)n1)CCN(c1ncccc1C(F)(F)F)CC2` [Example 50B, N^4-(4-Chloro-phenyl)-N^2,N^2-dimethyl-7-(3-trifluoromethyl-pyridin-2-yl)-6,7,8,9-tetrahydro-5H-pyrimido[4,5-d]azepine-2,4-diamine trifluoroacetic acid salt]: the IC50 turned out to be 910 nM.

For `Nc1nc2c(c(Nc3ccc(C(F)(F)F)cc3)n1)CCN(c1ncccc1C(F)(F)F)CC2` [Example 51, N^4-(4-Trifluoromethyl-phenyl)-7-(3-trifluoromethyl-pyridin-2-yl)-6,7,8,9-tetrahydro-5H-pyrimido[4,5-d]azepine-2,4-diamine], the IC50 turned out to be 1200 nM.

For `CSc1nc2c(c(Nc3ccc(C(F)(F)F)cc3)n1)CCN(c1ncccc1C(F)(F)F)CC2` [Example 52, [2-Methylsulfanyl-7-(3-trifluoromethyl-pyridin-2-yl)-6,7,8,9-tetrahydro-5H-pyrimido[4,5-d]azepin-4-yl]-(4-trifluoromethyl-phenyl)-amine], the IC50 was 53 nM.

Regarding `CS(=O)(=O)c1nc2c(c(Nc3ccc(C(F)(F)F)cc3)n1)CCN(c1ncccc1C(F)(F)F)CC2` [Example 53, [2-Methanesulfonyl-7-(3-trifluoromethyl-pyridin-2-yl)-6,7,8,9-tetrahydro-5H-pyrimido[4,5-d]azepin-4-yl]-(4-trifluoromethyl-phenyl)-amine], the IC50 was more than 6700 nM.

As to `FC(F)(F)c1ccc(Nc2nc(Nc3ccccc3)nc3c2CCN(c2ncccc2C(F)(F)F)CC3)cc1` [Example 54, N^2-Phenyl-N^4-(4-trifluoromethyl-phenyl)-7-(3-trifluoromethyl-pyridin-2-yl)-6,7,8,9-tetrahydro-5H-pyrimido[4,5-d]azepine-2,4-diamine], the half-inhibitory concentration (IC50) was 230 nM.

`FC(F)(F)c1ccc(Nc2nc(NC3CC3)nc3c2CCN(c2ncccc2C(F)(F)F)CC3)cc1` [Example 55B, N^2-Cyclopropyl-N^4-(4-trifluoromethyl-phenyl)-7-(3-trifluoromethyl-pyridin-2-yl)-6,7,8,9-tetrahydro-5H-pyrimido[4,5-d]azepine-2,4-diamine trifluoroacetic acid salt]: the IC50 came out at 150 nM.

For the compound `FC(F)(F)c1ccc(Nc2nc(N3CCC3)nc3c2CCN(c2ncccc2C(F)(F)F)CC3)cc1` [Example 56B, [2-Azetidin-1-yl-7-(3-trifluoromethyl-pyridin-2-yl)-6,7,8,9-tetrahydro-5H-pyrimido[4,5-d]azepin-4-yl]-(4-trifluoromethyl-phenyl)-amine trifluoroacetic acid salt], the 50% inhibitory concentration (IC50) was found to be 64 nM.

Regarding `OC1CCN(c2nc3c(c(Nc4ccc(C(F)(F)F)cc4)n2)CCN(c2ncccc2C(F)(F)F)CC3)CC1` [Example 59B, 1-[4-(4-Trifluoromethyl-phenylamino)-7-(3-trifluoromethyl-pyridin-2-yl)-6,7,8,9-tetrahydro-5H-pyrimido[4,5-d]azepin-2-yl]-piperidin-4-ol trifluoroacetic acid salt], the IC50 was 380 nM.

Turning to `CC(C)N1CCN(c2nc3c(c(Nc4ccc(C(F)(F)F)cc4)n2)CCN(c2ncccc2C(F)(F)F)CC3)CC1` [Example 60B, [2-(4-Isopropyl-piperazin-1-yl)-7-(3-trifluoromethyl-pyridin-2-yl)-6,7,8,9-tetrahydro-5H-pyrimido[4,5-d]azepin-4-yl]-(4-trifluoromethyl-phenyl)-amine trifluoroacetic acid salt], the IC50 turned out to be 140 nM.

As for `COc1nc2c(c(Nc3ccc(C(F)(F)F)cc3)n1)CCN(c1ncccc1C(F)(F)F)CC2` [Example 62, [2-Methoxy-7-(3-trifluoromethyl-pyridin-2-yl)-6,7,8,9-tetrahydro-5H-pyrimido[4,5-d]azepin-4-yl]-(4-trifluoromethyl-phenyl)-amine], the IC50 amounted to 53 nM.

Take `CN(C)c1nc2c(c(Nc3ccc(Cl)c(Cl)c3)n1)CCN(c1ncccc1C(F)(F)F)CC2` [Example 63B, N^4-(3,4-Dichloro-phenyl)-N^2,N^2-dimethyl-7-(3-trifluoromethyl-pyridin-2-yl)-6,7,8,9-tetrahydro-5H-pyrimido[4,5-d]azepine-2,4-diamine trifluoroacetic acid salt]: the IC50 was found to be 2500 nM.

Consider `CN(C)c1nc2c(c(Nc3ccc(C(C)(C)C#N)cc3)n1)CCN(c1ncccc1C(F)(F)F)CC2` [Example 65B, 2-{4-[2-Dimethylamino-7-(3-trifluoromethyl-pyridin-2-yl)-6,7,8,9-tetrahydro-5H-pyrimido[4,5-d]azepin-4-ylamino]-phenyl}-2-methyl-propionitrile trifluoroacetic acid salt], for which the IC50 was determined as 650 nM.

`CC(C)(C)c1ccc(Nc2nc(CN3CCCCC3)nc3c2CCN(c2ncccc2C(F)(F)F)CC3)cc1` [Example 66B, (4-tert-Butyl-phenyl)-[2-piperidin-1-ylmethyl-7-(3-trifluoromethyl-pyridin-2-yl)-6,7,8,9-tetrahydro-5H-pyrimido[4,5-d]azepin-4-yl]-amine trifluoroacetic acid salt]: the IC50 worked out at 930 nM.

Regarding `COCc1nc2c(c(Nc3ccc(C(C)(C)C)cc3)n1)CCN(c1ncccc1C(F)(F)F)CC2` [Example 67B, (4-tert-Butyl-phenyl)-[2-methoxymethyl-7-(3-trifluoromethyl-pyridin-2-yl)-6,7,8,9-tetrahydro-5H-pyrimido[4,5-d]azepin-4-yl]-amine trifluoroacetic acid salt], the IC50 is 34 nM.

In the case of `CN(C)c1nc2c(c(Nc3ccc4c(c3)OCCO4)n1)CCN(c1ncccc1C(F)(F)F)CC2` [Example 68B, N^4-(2,3-Dihydro-benzo[1,4]dioxin-6-yl)-N^2,N^2-dimethyl-7-(3-trifluoromethyl-pyridin-2-yl)-6,7,8,9-tetrahydro-5H-pyrimido[4,5-d]azepine-2,4-diamine trifluoroacetic acid salt], the IC50 was 3200 nM.

Still in this assay, the particulars now being: read-out: Rat IC50; hydrochloride salt.
With `FC(F)(F)c1ccc(Nc2nc(N3CCCCC3)nc3c2CCN(c2ncccc2C(F)(F)F)CC3)cc1` [Example 39A, [2-Piperidin-1-yl-7-(3-trifluoromethyl-pyridin-2-yl)-6,7,8,9-tetrahydro-5H-pyrimido[4,5-d]azepin-4-yl]-(4-trifluoromethyl-phenyl)-amine hydrochloride salt], the IC50 was 23 nM.

As for `FC(F)(F)c1ccc(Nc2nc(N3CCOCC3)nc3c2CCN(c2ncccc2C(F)(F)F)CC3)cc1` [Example 40A, [2-Morpholin-4-yl-7-(3-trifluoromethyl-pyridin-2-yl)-6,7,8,9-tetrahydro-5H-pyrimido[4,5-d]azepin-4-yl]-(4-trifluoromethyl-phenyl)-amine hydrochloride salt], the IC50 turned out to be […].

These data come from patent US9422293B2 (priority 2006, dated 2016).
